Measured values reported in US12077503B2, “Substituted cyclic amides and their use as herbicides” (FMC CORPORATION, priority 2015, dated 2024).

How the values were obtained:
Test in all cases: Test A postemergence
Format in all cases: in vivo
[1] = tested on: Galium (catchweed bedstraw, Galium aparine); conditions: Galium, post-emergence, 240 h, postemergence; for pest or weed control at 125 g/ha: 125 g ai/ha, visual injury vs untreated controls after approx. 10 d, 0 = no effect, 100 = complete control, read-out: Galium plant response rating (0 to 100 scale); for pest or weed control at 500 g/ha: 500 g ai/ha, 0 to 100 scale, 0 is no effect, 100 is complete control, read-out: Galium plant response rating
How it was run: (§1)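 Visual injury scores from 0, no effect, to 100, complete control, were assigned versus untreated controls roughly 10 d after treatment in the greenhouse. Test chemicals, formulated with surfactant in a non-phytotoxic solvent, were applied to planted seeds as a preemergence soil spray or postemergence to one- to two-leaf plants 2 to 10 cm tall, in loam–sand soil.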

[2] = tested on: barnyardgrass (Echinochloa crus-galli); conditions: Echinochloa crus-galli, post-emergence, 240 h, postemergence; for pest or weed control at 125 g/ha: 125 g ai/ha, visual injury vs untreated controls after approx. 10 d, 0 = no effect, 100 = complete control, read-out: Barnyardgrass plant response rating (0 to 100 scale); for pest or weed control at 500 g/ha: 500 g ai/ha, 0 to 100 scale, 0 is no effect, 100 is complete control, read-out: Barnyardgrass plant response rating
How it was run: as §1

[3] = tested on: giant foxtail (Setaria faberii); conditions: Setaria faberi, post-emergence, 240 h, postemergence; for pest or weed control at 125 g/ha: 125 g ai/ha, visual injury vs untreated controls after approx. 10 d, 0 = no effect, 100 = complete control, read-out: Foxtail, Giant plant response rating (0 to 100 scale); for pest or weed control at 500 g/ha: 500 g ai/ha, 0 to 100 scale, 0 is no effect, 100 is complete control, read-out: Foxtail, Giant plant response rating
How it was run: as §1

corn (Zea mays) = conditions: Zea mays, post-emergence, 240 h, postemergence; for plant injury at 125 g/ha: 125 g ai/ha, visual injury vs untreated controls after approx. 10 d, 0 = no effect, 100 = complete control, read-out: Corn plant response rating (0 to 100 scale); for plant injury at 500 g/ha: 500 g ai/ha, 0 to 100 scale, 0 is no effect, 100 is complete control, read-out: Corn plant response rating
How it was run: as §1

[4] = tested on: pigweed (Amaranthus retroflexus); conditions: Amaranthus retroflexus, post-emergence, 240 h, postemergence; for pest or weed control at 125 g/ha: 125 g ai/ha, visual injury vs untreated controls after approx. 10 d, 0 = no effect, 100 = complete control, read-out: Pigweed plant response rating (0 to 100 scale); for pest or weed control at 500 g/ha: 500 g ai/ha, 0 to 100 scale, 0 is no effect, 100 is complete control, read-out: Pigweed plant response rating
How it was run: as §1

| SMILES | pest or weed control at 125 g/ha [1] [%] | pest or weed control at 500 g/ha [1] [%] | pest or weed control at 125 g/ha [2] [%] | pest or weed control at 500 g/ha [2] [%] | pest or weed control at 125 g/ha [3] [%] | pest or weed control at 500 g/ha [3] [%] | plant injury at 125 g/ha (corn (Zea mays)) [%] | plant injury at 500 g/ha (corn (Zea mays)) [%] | pest or weed control at 125 g/ha [4] [%] | pest or weed control at 500 g/ha [4] [%] |
| --- | --- | --- | --- | --- | --- | --- | --- | --- | --- | --- |
| Cc1cc([C@H]2CN(C)C(=O)[C@@H]2C(=O)Nc2ccccc2F)no1 [Compound 1194] | 0 | 0 | 0 | 20 | 0 | 20 | 0 | 0 | 0 | 0 |
| N#Cc1cc([C@H]2CNC(=O)[C@@H]2C(=O)Nc2ccccc2F)ccc1F [Compound 1199] | 20 | 40 | 70 | 100 | 70 | 90 | 0 | 0 | 0 | 20 |
| N#Cc1ccc([C@H]2CNC(=O)[C@@H]2C(=O)Nc2cccc(F)c2F)cc1 [Compound 1206] | 30 | 50 | 70 | 100 | 50 | 80 | 0 | 0 | 0 | 30 |
| Cc1ccc([C@H]2CCN(C)C(=O)[C@@H]2C(=O)Nc2ccccc2C(F)(F)F)cc1 [Compound 1219] | 0 | 0 | 30 | 60 | 50 | 80 | 0 | 0 | 0 | 0 |
| Cc1ccc([C@H]2CCN(C)C(=O)[C@@H]2C(=O)Nc2cccc(Cl)c2F)cc1 [Compound 1223] | 20 | 40 | 30 | 50 | 90 | 90 | 0 | 0 | 0 | 0 |
| CN1CC[C@H](c2ccc(C(F)(F)F)cc2)[C@@H](C(=O)Nc2ccccc2C(F)(F)F)C1=O [Compound 1224] | 0 | 40 | 70 | 90 | 30 | 70 | 0 | 0 | 0 | 20 |
| CN1CC[C@H](c2ccc(C(F)(F)F)cc2)[C@@H](C(=O)Nc2ccc(F)c(F)c2F)C1=O [Compound 1226] | 80 | 80 | 100 | 100 | 80 | 80 | 30 | 70 | 20 | 60 |
